Values quoted from earlier work, collected in patent US20120157405A1, “Methods and Compositions for the Treatment of "Burning Feet Syndrome"” (priority 2010, published 2012).
Like-named read-outs stand apart in the source and are kept apart here.

Assays:
diabetic neuropathy [1] = settings: double-blind trial
neuropathic pain = settings: double-blind study
[2] = test system: symptomatic diabetic polyneuropathy; settings: symptomatic diabetic polyneuropathy and compressive radiculopathy syndrome from disc-nerve root conflict
[3] = test system: symptomatic diabetic polyneuropathy
mild diabetic neuropathy = settings: 480 mg daily, after 12 months
[4] = test system: Diabetes-Induced Oxidative Stress In Gastrointestinal Tissues; settings: exogenously administered, diabetic rats
[5] = test system: jejunal transport of water, Na and Cl; settings: in vivo jejunal perfusion
diabetic neuropathy [6] = settings: animal studies
[7] = test system: streptozotocin-induced diabetic rats; settings: 1.4 to 1.5 g/kg body weight, 7 weeks
[8] = test system: sciatic pain caused by herniated disc
[9] = test system: neuropathy associated with some chemotherapy drugs; settings: two studies
[10] = test system: chemically induced diabetic rats
[11] = test system: neuropathy associated with diabetes
[12] = test system: cardiac autonomic neuropathy; settings: people with diabetes
diabetic neuropathy [13] = settings: over a one-year period
[14] = test system: painful peripheral diabetic neuropathy; settings: 320 mg/day compared to 150 mg/day, over 6 weeks
[15] = test system: severe diabetic peripheral neuropathy
skin irritation = settings: topical adjunct skin care
[16] = test system: peripheral neuropathy symptoms; settings: niacin alone
“Burning Feet Syndrome” [17] = settings: 53 cases; parenteral calcium pantothenate given after the other vitamins
“Burning Feet Syndrome” [18] = settings: 6 mg intramuscular injections
[19] = test system: complications among the major targets of diabetes; settings: in vivo
vitamin B12 deficiency = settings: oral supplementation only
[20] = test system: nerve conduction and function; settings: 900 mg, six-month study
peripheral neuropathy = settings: daily high-dose supplementation for two years, person
[21] = after one year of treatment, all patients

Molecule: O=C(O)CCCCC1CCSS1 (stereo not drawn) [Alpha-lipoic acid]
- sensory symptoms and pain of diabetic neuropathy (diabetic neuropathy [1]): rapidly and significantly reduces sensory symptoms and pain of diabetic neuropathy
- nerve functionality and neuropathic pain (neuropathic pain): helped the recovery of nerve functionality and decrease neuropathic pain
- pain, paresthesia, and numbness [2]: reduced the pain, paresthesia, and numbness
- acute microcirculation occlusion (microcirculation; in vivo): significantly improve
- microcirculation (microcirculation; patients with diabetic polyneuropathy): significant improvement in microcirculation
- time at which TSS improvement was noted ([3]; oral 600 milligrams and 1200 milligrams): 2 weeks
- side effects ([3]; oral 600 to 1800 milligrams): dose-dependent increase in the incidence of nausea
- time at which TSS improvement was noted ([3]; oral 1800 milligrams): the end of the first week
- Total Symptom Score (TSS) ([3]; oral therapy, 600 to 1800 milligrams): significant improvement

Molecule: CCCCC/C=C\C/C=C\C/C=C\CCCCC(=O)O [GLA, gamma linolenic acid]
- outcome versus placebo group (mild diabetic neuropathy): significantly better than the placebo group

Molecule: N=C(N)NCCC[C@H](N)C(=O)O [L-arginine]
- oxidative stress in the gastrointestinal tract [4]: decrease the oxidative stress in the gastrointestinal tract
- jejunal transport of water, Na and Cl [5]: dose-dependent pro-secretor effect

Molecule: CC(=O)N[C@@H](CS)C(=O)O [NAC, N-Acetylcysteine]
- neuropathy (diabetic neuropathy [6]): can inhibit diabetic neuropathy and protect against neuropathies caused by chemotherapy drugs
- effect on diabetic neuropathy [7]: protective effects

Molecule: O=C(O)CCCCC1CCSS1 (centres unmarked) [Thioctic acid]
- treatment of sciatic pain [8]: appears to be effective

Molecule: CC(=O)O[C@H](CC(=O)[O-])C[N+](C)(C)C [acetyl-L-carnitine]
- chemotherapy-associated neuropathy [9]: can limit the neuropathy
- effects on glucose, insulin, or free fatty acids levels (diabetic animals; diabetic animals): without any adverse effects
- nerve conduction velocity (diabetic animals; diabetic animals): maintained near normal nerve conduction velocity
- nerve regeneration (diabetic animals; diabetic nerve degeneration and neuropathy, after experimental injury): accelerated nerve regeneration
- nerve dysfunctions [10]: A number of nerve dysfunctions were corrected
- sural nerve fiber numbers and regenerating nerve fiber clusters ([11]; 52 weeks): significant improvement
- vibratory perception ([11]; both studies): improved
- pain ([11]; daily doses of 500 mg and 1000 mg, 52 weeks): significant reductions in pain
- cardiac autonomic neuropathy [12]: appeared to help prevent or slow cardiac autonomic neuropathy
- nerve conduction velocity and pain (diabetic neuropathy [13]): improved nerve conduction velocity and reduced pain

Molecule: C/C(=C(\CCOP(=O)(O)O)SC(=O)c1ccccc1)N(C=O)Cc1cnc(C)nc1N [benfotiamine]
- alcoholic polyneuropathy (alcoholic polyneuropathy; benfotiamine versus combination with vitamin B6 and B12): significant improvement
- adverse effects (alcoholic polyneuropathy; double-blind study): no therapy-specific adverse effects
- pain and co-ordination (alcoholic polyneuropathy; double-blind study): improvement was evident
- therapeutic effectiveness [14]: most effective in large doses

Molecule: O=C(O)CCCC[C@@H]1SC[C@@H]2NC(=O)N[C@@H]21 [biotin]
- paresthesias [15, 21]: free of paresthesias
- walking distance without help [15, 21]: more than 300 meters
- symptoms of peripheral neuropathy ([15]; within four to eight weeks after biotin administration): objective improvement

Molecule: COc1cc(/C=C/C(=O)CC(=O)/C=C/c2ccc(O)c(OC)c2)ccc1O [curcumin]
- intracellular superoxide anion (O2) production (DM arterioles; DM arterioles, hydroethidine probe, low or high doses): significantly reduced
- diabetes-induced vascular PKC-β11 expression (DM arterioles; high dose): diminished
- Acetylcholine (ACh) responses (DM arterioles; low and high doses (30 and 300 mg/kg)): significantly improved

Molecule: CC(C)(CO)[C@@H](O)C(=O)NCCCO [dexpanthenol]
- symptoms of skin irritation (dryness, roughness, scaling, pruritus, erythema, erosion/fissure) (skin irritation): considerably improves symptoms of skin irritation

Molecule: O=C(O)c1cccnc1 [niacin]
- peripheral neuropathy symptoms [16]: does not help peripheral neuropathy symptoms

Molecule: O=C(O)c1cccnc1 [nicotinic acid]
- outcome of treatment of “Burning Feet Syndrome” (“Burning Feet Syndrome” [17]): failed

Molecule: Cc1cc2nc3c(=O)[nH]c(=O)nc-3n(C[C@H](O)[C@H](O)[C@H](O)CO)c2cc1C [riboflavin]
- outcome of treatment of “Burning Feet Syndrome” (“Burning Feet Syndrome” [17]): failed
- adverse reactions (“Burning Feet Syndrome” [18]): no reported adverse reactions
- time until the burning pain subsided (“Burning Feet Syndrome” [18]): ≤ 3 days

Molecule: NCCS(=O)(=O)O [taurine]
- severity of complications of diabetes (retina, neuron, kidney) [19]: diminishes the severity of complications

Molecule: Cc1ncc(C[n+]2csc(CCO)c2C)c(N)n1 [thiamine]
- outcome of treatment of “Burning Feet Syndrome” (“Burning Feet Syndrome” [17]): failed

Molecule: calcium pantothenate
- outcome of treatment of “Burning Feet Syndrome” (“Burning Feet Syndrome” [17]): cure

Molecule: vitamin B12
- patients with low B12 levels whose deficiency was corrected (vitamin B12 deficiency): ~50%

Molecule: vitamin E
- nerve conduction [20]: mild to moderate defective nerve conduction was improved
- disease progression and neuropathy (peripheral neuropathy): slowed disease progression and produced significant improvement in their neuropathy
